Patent US20240307338A1, “USE OF PHARMACEUTICAL COMPOSITION CONTAINING CHLOROGENIC ACID IN PREPARATION OF MEDICAMENT FOR TREATING PATHOLOGIC JAUNDICE” (SICHUAN JIUZHANG BIOLOGICAL SCIENCE AND TECHNOLOGY CO., LTD., priority 2021, published 2024)

Columns and labels:
Assay type in all cases: in vivo, SD rats
[1] = tested on: rat model of hemolytic jaundice (acetylphenylhydrazine-induced); assay: Detection of glutathione (GSH) by ELISA in rats with APH-induced hemolytic jaundice; details: after 6 days of treatment, in words, compared with the model control group (data not shown)
Experimental: Clean adult male SD rats, weighing 200 g-250 g. The following experiment was carried out mainly by referring to the method described in CN104739818A. In short, in the example, acetylphenylhydrazine (APH) was used as a modeling drug to construct a rat model of hemolytic jaundice, which was also a commonly used model for studying neonatal hemolytic jaundice at home and abroad. The most prominent feature of hemolytic jaundice was the collapse of the patient's red blood cells, causing hemolysis. […] At the same time, due to the rupture of red blood cells and the release of bilirubin, liver function was damaged. The mechanism and symptoms simulated by APH were similar to those of hemolytic jaundice. From 60 healthy SD rats with required body weight, 10 rats were randomly selected as the normal control group, and the remaining 50 rats were intraperitoneally injected with acetylphenylhydrazine (APH) at a dose of 150 mg/kg for 3 consecutive days, to construct the animal model of hemolytic jaundice induced by oxidation of red blood cells. […] In order to explore the mechanism for the possible therapeutic effect of CGA, the GSH level of rats in each group was detected in this example. […]

[2] = tested on: rat model of hemolytic jaundice (acetylphenylhydrazine-induced); assay: Determination of total, direct and indirect bilirubin in rats with APH-induced hemolytic jaundice
Experimental: (§1) Clean adult male SD rats, weighing 200 g-250 g. The following experiment was carried out mainly by referring to the method described in CN104739818A. In short, in the example, acetylphenylhydrazine (APH) was used as a modeling drug to construct a rat model of hemolytic jaundice, which was also a commonly used model for studying neonatal hemolytic jaundice at home and abroad. The most prominent feature of hemolytic jaundice was the collapse of the patient's red blood cells, causing hemolysis. […] At the same time, due to the rupture of red blood cells and the release of bilirubin, liver function was damaged. The mechanism and symptoms simulated by APH were similar to those of hemolytic jaundice. From 60 healthy SD rats with required body weight, 10 rats were randomly selected as the normal control group, and the remaining 50 rats were intraperitoneally injected with acetylphenylhydrazine (APH) at a dose of 150 mg/kg for 3 consecutive days, to construct the animal model of hemolytic jaundice induced by oxidation of red blood cells. […] 50 rats successfully modeled were randomly divided into 5 groups, 10 rats for each group, and the groups were respectively named as: model control group (n=10), CGA group (n=10), bifidobacteria+HMO group (n=10), CGA+bifidobacteria+HMO low-dose group (n=10), CGA+bifidobacteria+HMO high-dose group (n=10), together with the normal control group (n=10), a total of 6 experimental groups, including 60 rats. In the experiment, rats in each group were administered by gavage, while the blank group and the model group were given the solvent physiological saline by gavage. The administration time is 6 days. The composition and dosage of therapeutic drugs for each group were as follows: • (1) CGA group: CGA 60 mg/kg/day, administered by gavage with physiological saline as solvent. • (2) bifidobacteria+HMO group: Bifidobacterium brevis M16-V (6 mg/kg/day), lacto-N-neotetraose (3 mg/kg/day), and 6′-sialyllactose (3 mg/kg/day). The mixture of the above components was prepared according to the weight ratio, and using physiological saline as the solvent, the solution of the mixture was administered by gavage. • (3) CGA+bifidobacteria+HMO low-dose group: CGA (60 mg/kg/day), Bifidobacterium brevis M16-V (6 mg/kg/day), lacto-N-neotetraose (3 mg/kg/day), and 6′-sialyllactose (3 mg/kg/day). […] In this example, the activity of ALT (alanine aminotransferase) and AST (aspartate aminotransferase) was determined by rate method, while α-GST was detected using α-GST (α-glutathione s-transferase) detection kit; • (2) The blood sample stored in step (1) was taken out, and then bilirubin and direct bilirubin were detected by using the total bilirubin detection kit and the direct bilirubin detection kit.

[3] = tested on: rat model of hemolytic jaundice (acetylphenylhydrazine-induced); assay: Activity assay of α-GST, ALT and AST in serum of rats with APH-induced hemolytic jaundice
Experimental: as §1

[4] = after 6 days of gavage, APH model rats, mean ± SD, n=10
[5] = after 6 days of treatment, in words, compared with the model control group
[6] = serum, after 6 days of gavage, APH model rats, mean ± SD, n=10

In the case of `O=C(/C=C/c1ccc(O)c(O)c1)O[C@@H]1C[C@](O)(C(=O)O)C[C@@H](O)[C@H]1O` [CGA, 3-O-caffeoylquinic acid], the “content of GSH in serum” value [1] was “increased significantly”, the Direct bilirubin [2, 4] was 1.86 ± 0.85 µmol/L and the Indirect bilirubin [2, 4] was 1.51 µmol/L. For the same compound, the Total bilirubin [2, 4] was 3.37 ± 0.93 µmol/L, the “levels of direct bilirubin, indirect bilirubin and total bilirubin” value [2, 5] was “significantly decreased” and the “levels of α-GST, ALT, and AST in serum” value [3, 5] was “significantly decreased”. It also gave an ALT [3, 6] of 26.5 ± 3.8 U/L, an AST [3, 6] of 29.8 ± 5.1 U/L and a α-GST [3, 6] of 20.9 ± 4.2.
